In patent publication US8669253B2, “Methods for treating glaucoma and macular degeneration” (Duke University, priority 2006, dated 2014):
“And” between values parts separate entries of the source, which are not always exact repeats. Equal entries are not always repeated. “Also recorded” adds a separate entry of the source.

Experiments:
GFP-H-Ras in MDCK cells = test: Localization of GFP-H-Ras in MDCK cells; format: cell-based; conditions: 20 μM, 24 h
Protocol: (§1) MDCK cells stably expressing GFP-H-Ras were a gift from Mark Philips (New York University School of Medicine). Ras-CVLL was cloned into pEGFP (Clontech) and used to transfect MDCK cells. Stable clones were then selected using […] Geneticin and expression confirmed by analysis of GFP expression as visualized by fluorescence microscopy. MDCK cells were always cultured as a monolayer in DMEM with 10% FBS. For drug treatment experiments, cells were plated onto glass-bottom microwell dishes (MatTek Corp, Ashland, Mass.) and experiments initiated approximately 24 h after cells reached confluence. All compounds tested were dissolved in DMSO and added to cells at a final DMSO concentration of 0.02%.
Assessment of receptor independent cell rounding was accomplished using adenovirus expressing the activated mutant of Gα12, Gα12QL (31). MDA-MB-231 cells were plated onto glass-bottom microwell dishes at 60% confluence and grown for 18-24 h in the presence of serum. […] Following an additional 12 h incubation, cells were imaged using brightfield and GFP fluorescence microscopy. Cell images were acquired using an Eclipse TE300 microscope (Nikon) using either an oil immersion lens at 600× (for fluorescence of MDCK cells) or a plan fluor lens at 200× (for MBA-321 cells) and a SPOT digital camera (Diagnostic Instruments, Sterling Heights, Mich.) employing SPOT RT 3.02 software.

[1] = system: Rap1 prenylation in MDA-MB-231 cells; test: Unprenylated Rap1 analysis (immunoblot); format: cell-based; conditions: 24 h
Protocol: To measure levels of unprenylated Rap1 in cells, whole cell lysates of MDA-MB-231 cells (prepared identically to Gβγ partitioning above, 75 ug) were mixed with Laemmli loading buffer and boiled. Samples were then separated by electrophoresis on denaturing 4-20% polyacrylamide gels and proteins transferred to nitrocellulose membranes for immunoblotting with antisera specific for the unprenylated form of Rap1 (Santa Cruz, sc-1482, goat). Sample loading was verified by reprobing blots with antisera for total Rap1 (Santa Cruz, sc-65, rabbit).

MDA-MB-231 cells [2] = test: Thrombin-induced cell rounding; format: cell-based; conditions: 24 h pretreatment, GGTI-DU40 5 μM, SN-DU40 and FTI 20 μM, thrombin 20 min
Protocol: For the experiments assessing thrombin effects on cell morphology, MDA-MB-231 cells were plated onto glass-bottom microwell dishes at 10-20% confluence and grown for 18-24 h in the presence of serum. Cells were then washed once with PBS and media replaced with serum-free media (DMEM) including indicated compounds and incubated an additional 24 h. Cells were then imaged, treated with thrombin (1 U/mL for 20 min), and imaged again.

[3] = system: GFP-Ras-CVLL in MDCK cells; test: Localization of GFP-Ras-CVLL in MDCK cells; format: cell-based; conditions: for localization of Ras-CVLL: 20 μM, 24 h
Protocol: as §1
(§2) Assessment of receptor independent cell rounding was accomplished using adenovirus expressing the activated mutant of Gα12, Gα12QL (31). MDA-MB-231 cells were plated onto glass-bottom microwell dishes at 60% confluence and grown for 18-24 h in the presence of serum. Cells were then washed once with PBS and media replaced with serum-free media (DMEM) including any indicated compounds and incubated 6 h before addition of recombinant adenovirus. Following an additional 12 h incubation, cells were imaged using brightfield and GFP fluorescence microscopy. Cell images were acquired using an Eclipse TE300 microscope (Nikon) using either an oil immersion lens at 600× (for fluorescence of MDCK cells) or a plan fluor lens at 200× (for MBA-321 cells) and a SPOT digital camera (Diagnostic Instruments, Sterling Heights, Mich.) employing SPOT RT 3.02 software.

[4] = system: Rho association with RhoGDI in MDA-MB-231 cells; test: RhoGDI-Rho interaction assay (GST-RhoGDI pull-down); format: cell-based; conditions: 24 h, GGTI-DU40 5 μM, FTI 20 μM
Protocol: The interaction of GST-RhoGDI with endogenous Rho was assessed by protein interaction experiments. RhoGDI was generated as a glutathione-S-transferase fusion protein using a construct provided by Gary Bokoch (Scripps). The GST-RhoGDI fusion protein was incubated with treated MDA-MB-231 cell lysates (prepared identically to Gβγ partitioning above) for 1 hr at 4° C. in a total volume of 200 μl. Glutathione-sepharose was added and the mixture rotated at 4° C. for 30 min after which the affinity matrix was pelleted and washed three times with 500 μl of incubation buffer (70 mM HEPES, pH 7.5, 2 mM EDTA, 1 mM DTT, 150 mM NaCl, 0.1% Tween, 100 μM GDP, 2 mM MgCl2). Proteins retained on the matrix were solubilized in 2× Laemmli loading buffer and separated by electrophoresis on denaturing, 4-20% polyacrylamide gels. Proteins were transferred to nitrocellulose membranes for immunoblotting with an anti-RhoA antibody (Santa Cruz, sc-179).

Icmt = target: T1, Icmt (Homo sapiens, UniProt O60725); test: Icmt assay; format: biochemical; conditions: concentration range tested
T1 construct: made in house; host or cells: Sf9 (membrane preparation)
T1 sequence (O60725 whole entry): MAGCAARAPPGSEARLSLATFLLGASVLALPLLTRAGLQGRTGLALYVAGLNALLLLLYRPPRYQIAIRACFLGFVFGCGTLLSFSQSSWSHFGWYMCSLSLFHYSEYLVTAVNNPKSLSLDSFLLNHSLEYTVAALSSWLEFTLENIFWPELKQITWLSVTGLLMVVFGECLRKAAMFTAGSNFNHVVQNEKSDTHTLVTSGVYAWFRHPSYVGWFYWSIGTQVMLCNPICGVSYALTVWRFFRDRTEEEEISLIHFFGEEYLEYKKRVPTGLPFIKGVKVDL
Protocol: Icmt assays were performed as described previously (27). Briefly, reactions were performed using biotin-S-famsyl-L-cysteine (4 μM) as a substrate and ^3H-AdoMet (5 μM, 7.5 Ci/mmol) as a methyl donor. Reactions were initiated by the addition of Sf9 membranes containing recombinant human Icmt (2 μg totoal protein) in the presence and absence of inhibitors. Reactions were carried out at room temperature for 20 min, and product formation determined.

MDA-MB-231 cells [5] = test: Receptor independent cell rounding by Gα12QL expression; format: cell-based
Protocol: as §2

MDA-MB-231 cells [6] = test: Thrombin-induced calcium mobilization (Fura-2); format: cell-based; conditions: 5 μM, 24 h
Protocol: For the experiments assessing thrombin-induced calcium flux, MDA-MB-231 were plated on glass coverslips and treated similarly to that described for the thrombin rounding experiments. Calcium flux was measured 24 h after withdrawal of serum and addition of inhibitors using the calcium-sensitive dye Fura 2-AM (Molecular Probes Inc)(32). MDA-MB-231 cells were dye loaded for 1 h with 2.5 μM Fura-2 AM in Hanks balanced salt solution (HBSS, supplemented with 10 mM glucose and 0.1% BSA). After dye loading, the coverslips were placed in a temperature controlled recording chamber and superfused with Hanks solution. Cells were excited alternately at 340 and 380 nm and fluorescence emission at 510 nm was measured every four sec during the course of each experiment. After baseline recording for 2 min, thrombin (1 U/mL) was superfused into the bath chamber for 1 min (˜20 mL), followed by washout. Data is presented after baseline subtraction to show thrombin dependent calcium flux. Fluorescence measurements were acquired using a DeltaScan Illumination System (Photon Technology International (PTI), South Brunswick, N.J.) running on FELIX 1.4 software.

[7] = system: porcine TM primary cell cultures; test: TM cell morphology, actin cytoskeleton and focal adhesions; format: cell-based; conditions: 5 to 40 μM, 6 hours, 10% serum
Protocol: (§3) Methods: A selective inhibitor of GGTase-I (GGTI-DU40) was tested in this study to investigate its effects on actin cytosketal integrity, cell adhesions, cell-cell junctions, myosin II phosphosphorylation, and membrane localization of Rho, Rap and G-beta/gamma in trabecular meshwork (TM) cells, using immunofluorescence detection and immunobloting analysis. The effects of GGTI-DU40 on aqueous humor outflow were determined using organ cultured, perfused anterior segments of porcine eyes.
The porcine TM primary cell cultures were treated with GGTI compounds in the presence of 10% serum for 6 hours and recorded for the changes in cell morphology (phase contrast microscope), actin cytoskeletal organization (phalloidin staining) and focal adhesions (vinculin staining).

[8] = target: T2, GGTase-II (Rab geranylgeranyltransferase) (Bos taurus, UniProt Q5E9B3); test: GGTase-II activity assay (bovine brain cytosol, Rab5a substrate); format: biochemical; conditions: concentration range tested
T2 construct: bovine brain cytosol (200 μg protein) as the enzyme source; from tissue; host or cells: bovine brain cytosol
T2 sequence (Q5E9B3 1-331): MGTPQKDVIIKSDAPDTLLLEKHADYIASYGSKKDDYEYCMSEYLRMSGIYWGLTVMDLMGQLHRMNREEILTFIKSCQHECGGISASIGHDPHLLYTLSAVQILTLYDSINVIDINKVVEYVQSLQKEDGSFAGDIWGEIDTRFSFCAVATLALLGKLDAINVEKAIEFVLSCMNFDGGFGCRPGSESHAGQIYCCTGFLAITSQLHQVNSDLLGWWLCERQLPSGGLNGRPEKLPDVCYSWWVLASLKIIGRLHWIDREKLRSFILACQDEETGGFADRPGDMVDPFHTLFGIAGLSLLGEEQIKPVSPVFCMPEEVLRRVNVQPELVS
Protocol: GGTase-II activity was measured used bovine brain cytosol (200 μg protein) as the enzyme source and purified GST-tagged Rab5a as the protein substrate. The pGEX-Rab5a construct was a gift from Adrienne Cox (University of North Carolina). The assay was performed identically to that described above for the CaaX prenyltransferases except for the enzyme source and protein substrate and that the reaction time was increased to for 30 min.

[9] = system: organ cultured anterior segments of porcine eyes; test: Aqueous humor outflow facility in organ cultured, perfused anterior segments; conditions: 10 μM or 25 μM, perfused for 24 to 96 hours, n=8, change from baseline facility
Protocol: as §3
GGTI-396586 was perfused in organ cultured anterior segments of enucleated porcine eyes at a constant flow at 37° C. Changes in aqueous humor outflow facility were determined. Values are expressed as percent change in outflow facility from baseline facility.

GGTase-I = target: T3, GGTase-I (Homo sapiens, UniProt P53609); test: GGTase-I enzyme assay (3H-GGPP incorporation into Ras-CVLL); format: biochemical, mammalian
T3 construct: made in house; host or cells: Sf9 cells
Protocol: (§4) FTase and GGTase-I activities were determined by following incorporation of radiolabeled isoprenoid from ^3H-FPP and ^3H-GGPP into Ras proteins as described previously (28). Briefly, purified mammalian FTase or GGTase-I (50 ng, expressed in Sf9 cells) (29, 30) were used to initiate reactions containing 0.5 μM FPP or GGPP, respectively and 1 μM of the appropriate purified His-tagged Ras substrates (H-Ras for FTase; Ras-CVLL for GGTase-I). Where indicated in the appropriate Figure legend, inhibitors were added at the indicated concentrations. Final DMSO concentration was 2% for all samples. Reactions were carried out for 10 min at 30° C. before precipitation and product determination. Kinetic assays in which GGPP concentration was varied employed 5 ng GGTase-I, and reactions were carried out for five min to prevent GGTase-I concentration from exceeding GGPP concentration.
Graphing and curve fitting were performed using Prism (GraphPad, SanDiego Calif.). Substrate-velocity curves were fit to the Michaelis-Menten equation, while double-reciprocal plots were fit using linear regression. The Ki for GGTI-DU40 was calculated using nonlinear regression and shared parameter curve fitting for all inhibitor concentrations, the velocity equation used was v=Vmax[S]/(Km(1+([I]/Ki))+[S]).

[10] = system: Rho, Rap and G-beta/gamma in trabecular meshwork (TM) cells; test: Membrane localization of Rho, Rap and G-beta/gamma in TM cells; format: cell-based, porcine; conditions: drug-treated TM cells
Protocol: as §3

[11] = system: myosin light chain (MLC) phosphorylation in porcine primary TM cells; test: Myosin light chain phosphorylation in TM cells; format: cell-based; conditions: 6 hours, 10% serum
Protocol: as §3
Porcine primary TM cells were treated with GGTI compounds for 6 hours in the presence of 10% serum and the cell lysates were analyzed for the changes in myosin light chain (MLC) phosphorylation using phosphospecific-anti-MLC antibody.

Gβγ in MDA-MB-231 cells = test: Gβγ membrane partitioning; format: cell-based; conditions: 24 h
Protocol: MDA-MB-231 cells were grown in 10 cm dishes and treated exactly as in the thrombin cell rounding assay. Following drug treatment in serum free media, cells were harvested and lysed using ice cold hypotonic lysis buffer (70 mM HEPES pH 7.4, 2 mM EDTA, 1 mM DTT, and protease inhibitors). Following sonication, the whole cell lysate (75 μg protein) was centrifuged at 100,000×g for 45 min. Both the supernatant (S100) and pellet (P100) fractions were processed on 4-20% SDS-polyacrylamide gels and proteins transferred to nitrocellulose membranes for immunoblot analysis.

FTase = target: T4, FTase (Homo sapiens, UniProt P49356); test: FTase enzyme assay (3H-FPP incorporation into H-Ras); format: biochemical, mammalian
T4 construct: made in house; host or cells: Sf9 cells
Protocol: as §4

CC[C@H](C)[C@@H](CO[C@@H](Cc1ccccc1)C(=O)N[C@@H](CCS(C)(=O)=O)C(=O)OC(C)C)NC[C@@H](N)CS [L-744,832, reference compound]
localization of H-Ras (GFP-H-Ras in MDCK cells): almost complete mislocalization | level of unmodified (unprenylated) Rap1 [1]: no effect | thrombin-stimulated cell rounding (MDA-MB-231 cells [2]): normal rounding | localization of Ras-CVLL [3]: no detectable mislocalization | ability of Rho proteins to associate with RhoGDI [4]: no effect

CSCCc1c(-c2cccnc2)nn(-c2ccc(Cl)c(Cl)c2)c1OCCCC(=O)N[C@@H](Cc1ccccc1)C(N)=O [GGTI-DU40, N—[(S)-1-Carbamoyl-2-phenylethyl]-4-[2-(3,4-dichlorophenyl)-4-(2-methylsulfanylethyl)-5-pyridin-3-yl-2-H-pyrazol-3-yloxy]butyramide]
activity against Icmt methyltransferase (Icmt): no detectable activity | rounding of cells elicited by expression of Gα12QL (MDA-MB-231 cells [5]): blocked | localization of H-Ras (GFP-H-Ras in MDCK cells): without an effect | ability of thrombin to elicit calcium mobilization (MDA-MB-231 cells [6]): unaffected | total calcium flux versus control (MDA-MB-231 cells [6]; integration of time with fluorescence): no statistical difference | actin stress fibers and focal adhesions [7]: reversible decreases | changes in TM cell morphology [7]: dose dependent | activity against GGTase-II [8]: no detectable activity | increase in aqueous outflow facility [9]: 30% | FTase/GGTase-I selectivity ratio (GGTase-I): > 250 | mode of inhibition with respect to the protein substrate (GGTase-I; GGPP fixed, Ras-CVLL varied, 2-20 nM inhibitor): competitive inhibitor | mode of inhibition with respect to GGPP (GGTase-I; Ras-CVLL fixed, GGPP varied, 2-20 nM inhibitor): uncompetitive inhibitor | time-dependent inhibition of GGTase-I (GGTase-I; data not shown): no such behavior was observed | Ki (GGTase-I; protein substrate competition data, nonlinear regression, read-out: Ki for GGTase-I inhibition): < 1 nM and 0.78 nM and 0.8 nM | IC50 (GGTase-I; purified GGTase-I): 8.24 nM | membrane localization of Rho, Rap and G-beta/gamma [10]: impaired | myosin light chain phosphorylation [11]: decreased significantly; also recorded: significantly reduced | level of unmodified (unprenylated) Rap1 [1]: dose dependent increase | membrane-associated Gβγ (Gβγ in MDA-MB-231 cells): partial loss | IC50 (FTase): > 2000 nM | thrombin-stimulated cell rounding (MDA-MB-231 cells [2]): dramatically inhibited | localization of Ras-CVLL [3]: complete mislocalization | lowest inhibitor concentration at which Ras-CVLL mislocalization could be detected ([3]; data not shown): 2 µM | ability of Rho proteins to associate with RhoGDI [4]: almost complete loss
